Values quoted from earlier work as cited in US20240293547A1, “POLYMERIC PERFLUOROCARBON NANOEMULSIONS FOR ULTRASONIC DRUG UNCAGING” (The Board of Trustees of the Leland Stanford Junior …, priority 2017, published 2024).

Details: for LogP: of the loaded drug

| SMILES | log P | LogP |
| --- | --- | --- |
| COC(=O)C1=C(C)NC(C)=C(C(=O)OCCN(C)Cc2ccccc2)C1c1cccc([N+](=O)[O-])c1 (stereo not drawn) [Nicardipine] | 3.8 | 3.82 |
| Cc1cccc([C@H](C)c2cnc[nH]2)c1C [Dexmedetomidine] |  | 2.8 |
